Source: PubChem BioAssay (NCI)
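All cell lines were grown in 96-well plates and treated with compound for 48 hours. TGI is the concentration that stops growth completely.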

Tests used:
Assay in all cases: NCI-60 cell line screen, 48 h
KM12 colon = system: KM12 colon
M14 melanoma = system: M14 melanoma
RXF-631 renal = system: RXF-631 renal
RXF 393 renal = system: RXF 393 renal
RPMI-8226 leukemia = system: RPMI-8226 leukemia
NCI-H460 lung = system: NCI-H460 lung
HOP-18 NSCLC = system: HOP-18 NSCLC
SR leukemia = system: SR leukemia
SF-268 CNS = system: SF-268 CNS
OVCAR-4 ovarian = system: OVCAR-4 ovarian
CCRF-CEM leukemia = system: CCRF-CEM leukemia
ACHN renal = system: ACHN renal
SNB-75 CNS = system: SNB-75 CNS
SW-620 colon = system: SW-620 colon
PC-3 prostate = system: PC-3 prostate
EKVX NSCLC = system: EKVX NSCLC
DLD-1 colon = system: DLD-1 colon
MDA-MB-231 breast = system: MDA-MB-231 breast
SN12C renal = system: SN12C renal
MDA-N = system: MDA-N
BT-549 breast = system: BT-549 breast
OVCAR-3 ovarian = system: OVCAR-3 ovarian
SNB-78 CNS = system: SNB-78 CNS
LXFL 529 NSCLC = system: LXFL 529 NSCLC
A549 NSCLC = system: A549 NSCLC
OVCAR-8 ovarian = system: OVCAR-8 ovarian
SK-MEL-2 melanoma = system: SK-MEL-2 melanoma
KM20L2 colon = system: KM20L2 colon
DMS 114 small cell lung = system: DMS 114 small cell lung
LOX IMVI melanoma = system: LOX IMVI melanoma
A498 renal = system: A498 renal
786-0 renal = system: 786-0 renal
MDA-MB-435 = system: MDA-MB-435
MOLT-4 leukemia = system: MOLT-4 leukemia
HT29 colon = system: HT29 colon
UO-31 renal = system: UO-31 renal
DU-145 prostate = system: DU-145 prostate
NCI-H23 lung = system: NCI-H23 lung
OVCAR-5 ovarian = system: OVCAR-5 ovarian
MALME-3M melanoma = system: MALME-3M melanoma
DMS 273 small cell lung = system: DMS 273 small cell lung
K-562 leukemia = system: K-562 leukemia
NCI-H522 lung = system: NCI-H522 lung
HOP-92 NSCLC = system: HOP-92 NSCLC
COLO 205 colon = system: COLO 205 colon
U251 CNS = system: U251 CNS
UACC-62 melanoma = system: UACC-62 melanoma
CAKI-1 renal = system: CAKI-1 renal
SF-295 CNS = system: SF-295 CNS
HL-60(TB) leukemia = system: HL-60(TB) leukemia
HCT-116 colon = system: HCT-116 colon
TK-10 renal = system: TK-10 renal
SK-MEL-5 melanoma = system: SK-MEL-5 melanoma
HCT-15 colon = system: HCT-15 colon
UACC-257 melanoma = system: UACC-257 melanoma
SNB-19 CNS = system: SNB-19 CNS
T-47D breast = system: T-47D breast
HOP-62 NSCLC = system: HOP-62 NSCLC
HS 578T breast = system: HS 578T breast
SK-OV-3 ovarian = system: SK-OV-3 ovarian
MCF7 breast = system: MCF7 breast
NCI/ADR-RES ovarian = system: NCI/ADR-RES ovarian
SK-MEL-28 melanoma = system: SK-MEL-28 melanoma
NCI-H226 lung = system: NCI-H226 lung
M19-MEL melanoma = system: M19-MEL melanoma
IGROV1 ovarian = system: IGROV1 ovarian
SF-539 CNS = system: SF-539 CNS
HCC-2998 colon = system: HCC-2998 colon
XF 498 CNS = system: XF 498 CNS

## O=C1C2C3C=CC(C2C(=O)N1CN1CCOCC1)C1C2C(=O)N(CN4CCOCC4)C(=O)C2C31 (configuration not stated)
KM12 colon
  TGI: > 63.4 µM
M14 melanoma
  TGI: > 57.2 µM
RXF-631 renal
  TGI: 74.9 µM
RXF 393 renal
  TGI: > 65.2 µM
RPMI-8226 leukemia
  TGI: > 71.9 µM
NCI-H460 lung
  TGI: > 57.5 µM
HOP-18 NSCLC
  TGI: 60.2 µM
SR leukemia
  TGI: > 100 µM
SF-268 CNS
  TGI: > 64 µM
OVCAR-4 ovarian
  TGI: > 60.4 µM
CCRF-CEM leukemia
  TGI: 57.9 µM
ACHN renal
  TGI: > 91.5 µM
SNB-75 CNS
  TGI: > 73.2 µM
SW-620 colon
  TGI: > 69.8 µM
PC-3 prostate
  TGI: > 100 µM
EKVX NSCLC
  TGI: > 100 µM
DLD-1 colon
  TGI: > 100 µM
MDA-MB-231 breast
  TGI: > 100 µM
SN12C renal
  TGI: > 64.4 µM
MDA-N
  TGI: > 100 µM
BT-549 breast
  TGI: > 100 µM
OVCAR-3 ovarian
  TGI: > 77.8 µM
SNB-78 CNS
  TGI: > 100 µM
LXFL 529 NSCLC
  TGI: 36.1 µM
A549 NSCLC
  TGI: > 86.9 µM
OVCAR-8 ovarian
  TGI: > 69.2 µM
SK-MEL-2 melanoma
  TGI: > 61.1 µM
KM20L2 colon
  TGI: 63.1 µM
DMS 114 small cell lung
  TGI: 34.1 µM
LOX IMVI melanoma
  TGI: > 60.9 µM
A498 renal
  TGI: > 100 µM
786-0 renal
  TGI: > 60.9 µM
MDA-MB-435
  TGI: > 100 µM
MOLT-4 leukemia
  TGI: 53.3 µM
HT29 colon
  TGI: > 100 µM
UO-31 renal
  TGI: > 84.6 µM
DU-145 prostate
  TGI: > 100 µM
NCI-H23 lung
  TGI: > 66.8 µM
OVCAR-5 ovarian
  TGI: > 92.7 µM
MALME-3M melanoma
  TGI: > 100 µM
DMS 273 small cell lung
  TGI: 33.3 µM
K-562 leukemia
  TGI: > 79.3 µM
NCI-H522 lung
  TGI: > 55.2 µM
HOP-92 NSCLC
  TGI: > 93.8 µM
COLO 205 colon
  TGI: > 56.9 µM
U251 CNS
  TGI: > 63.2 µM
UACC-62 melanoma
  TGI: > 63 µM
CAKI-1 renal
  TGI: > 100 µM
SF-295 CNS
  TGI: 98.9 µM
HL-60(TB) leukemia
  TGI: > 59.5 µM
HCT-116 colon
  TGI: > 62.8 µM
TK-10 renal
  TGI: > 93.4 µM
SK-MEL-5 melanoma
  TGI: > 58 µM
HCT-15 colon
  TGI: > 60.1 µM
UACC-257 melanoma
  TGI: > 71.5 µM
SNB-19 CNS
  TGI: > 78.9 µM
T-47D breast
  TGI: > 100 µM
HOP-62 NSCLC
  TGI: > 100 µM
HS 578T breast
  TGI: > 100 µM
SK-OV-3 ovarian
  TGI: > 100 µM
MCF7 breast
  TGI: > 100 µM
NCI/ADR-RES ovarian
  TGI: > 100 µM
SK-MEL-28 melanoma
  TGI: > 66 µM
NCI-H226 lung
  TGI: > 84.3 µM
M19-MEL melanoma
  TGI: 40.5 µM
IGROV1 ovarian
  TGI: > 94.6 µM
SF-539 CNS
  TGI: > 79.6 µM
HCC-2998 colon
  TGI: > 61.2 µM

## N/N=C1\C(=O)N(c2ccc(Cl)c(Cl)c2)C(=O)C1C(=O)Nc1ccc(Cl)c(Cl)c1 (configuration not stated)
KM12 colon
  TGI: > 100 µM
M14 melanoma
  TGI: > 100 µM
RXF-631 renal
  TGI: > 100 µM
RXF 393 renal
  TGI: > 100 µM
RPMI-8226 leukemia
  TGI: > 100 µM
NCI-H460 lung
  TGI: > 100 µM
HOP-18 NSCLC
  TGI: > 100 µM
SF-268 CNS
  TGI: > 100 µM
OVCAR-4 ovarian
  TGI: > 100 µM
CCRF-CEM leukemia
  TGI: > 100 µM
ACHN renal
  TGI: > 100 µM
SNB-75 CNS
  TGI: > 100 µM
SW-620 colon
  TGI: > 100 µM
EKVX NSCLC
  TGI: > 100 µM
DLD-1 colon
  TGI: > 100 µM
SN12C renal
  TGI: > 100 µM
OVCAR-3 ovarian
  TGI: > 100 µM
SNB-78 CNS
  TGI: 79.5 µM
LXFL 529 NSCLC
  TGI: > 100 µM
A549 NSCLC
  TGI: > 100 µM
OVCAR-8 ovarian
  TGI: > 100 µM
SK-MEL-2 melanoma
  TGI: > 100 µM
KM20L2 colon
  TGI: > 100 µM
DMS 114 small cell lung
  TGI: > 100 µM
A498 renal
  TGI: > 100 µM
786-0 renal
  TGI: > 100 µM
MOLT-4 leukemia
  TGI: > 100 µM
HT29 colon
  TGI: > 100 µM
UO-31 renal
  TGI: 84 µM
NCI-H23 lung
  TGI: > 100 µM
OVCAR-5 ovarian
  TGI: > 100 µM
MALME-3M melanoma
  TGI: > 100 µM
K-562 leukemia
  TGI: > 100 µM
NCI-H522 lung
  TGI: > 100 µM
HOP-92 NSCLC
  TGI: > 100 µM
U251 CNS
  TGI: > 100 µM
UACC-62 melanoma
  TGI: > 100 µM
SF-295 CNS
  TGI: > 100 µM
HL-60(TB) leukemia
  TGI: > 100 µM
HCT-116 colon
  TGI: > 100 µM
TK-10 renal
  TGI: > 100 µM
SK-MEL-5 melanoma
  TGI: 69.6 µM
HCT-15 colon
  TGI: > 100 µM
UACC-257 melanoma
  TGI: > 100 µM
SNB-19 CNS
  TGI: > 100 µM
HOP-62 NSCLC
  TGI: > 100 µM
SK-MEL-28 melanoma
  TGI: > 100 µM
M19-MEL melanoma
  TGI: > 100 µM
IGROV1 ovarian
  TGI: > 100 µM
SF-539 CNS
  TGI: > 100 µM
HCC-2998 colon
  TGI: > 100 µM

## CC12CC(Br)(Br)C(=O)C3C1CCCC32
KM12 colon
  TGI: 28.3 µM
M14 melanoma
  TGI: 10.1 µM
RXF 393 renal
  TGI: 6.04 µM
RPMI-8226 leukemia
  TGI: 9.74 µM
NCI-H460 lung
  TGI: 31.7 µM
HOP-18 NSCLC
  TGI: 22.6 µM
SR leukemia
  TGI: 13.6 µM
SF-268 CNS
  TGI: 35.1 µM
OVCAR-4 ovarian
  TGI: 10.4 µM
CCRF-CEM leukemia
  TGI: 9.43 µM
ACHN renal
  TGI: 15.5 µM
SNB-75 CNS
  TGI: 22.9 µM
SW-620 colon
  TGI: 5.22 µM
PC-3 prostate
  TGI: 25.6 µM
EKVX NSCLC
  TGI: 19.1 µM
DLD-1 colon
  TGI: 13.6 µM
MDA-MB-231 breast
  TGI: 7.62 µM
SN12C renal
  TGI: 11.4 µM
MDA-N
  TGI: 9.66 µM
BT-549 breast
  TGI: 5.04 µM
OVCAR-3 ovarian
  TGI: 7.08 µM
SNB-78 CNS
  TGI: 44.8 µM
LXFL 529 NSCLC
  TGI: 6.83 µM
A549 NSCLC
  TGI: 36.5 µM
OVCAR-8 ovarian
  TGI: 12.7 µM
SK-MEL-2 melanoma
  TGI: 30.4 µM
KM20L2 colon
  TGI: 37.9 µM
DMS 114 small cell lung
  TGI: 16.2 µM
LOX IMVI melanoma
  TGI: 7.67 µM
A498 renal
  TGI: 31.1 µM
786-0 renal
  TGI: 9.32 µM
MDA-MB-435
  TGI: 8.78 µM
MOLT-4 leukemia
  TGI: 14.9 µM
HT29 colon
  TGI: 24.2 µM
UO-31 renal
  TGI: 15 µM
DU-145 prostate
  TGI: 25.1 µM
NCI-H23 lung
  TGI: 16.3 µM
OVCAR-5 ovarian
  TGI: 32.1 µM
MALME-3M melanoma
  TGI: 9.5 µM
DMS 273 small cell lung
  TGI: 18.2 µM
K-562 leukemia
  TGI: 11.7 µM
NCI-H522 lung
  TGI: 7.84 µM
HOP-92 NSCLC
  TGI: 6.19 µM
COLO 205 colon
  TGI: 5.16 µM
U251 CNS
  TGI: 25.9 µM
UACC-62 melanoma
  TGI: 19.7 µM
CAKI-1 renal
  TGI: 6.05 µM
SF-295 CNS
  TGI: 29.5 µM
HL-60(TB) leukemia
  TGI: 9.33 µM
HCT-116 colon
  TGI: 5.12 µM
TK-10 renal
  TGI: 12.5 µM
SK-MEL-5 melanoma
  TGI: 17.5 µM
HCT-15 colon
  TGI: 15.7 µM
XF 498 CNS
  TGI: 21 µM
UACC-257 melanoma
  TGI: 22.2 µM
SNB-19 CNS
  TGI: 28.8 µM
T-47D breast
  TGI: 6.4 µM
HOP-62 NSCLC
  TGI: 28.5 µM
HS 578T breast
  TGI: 45.2 µM
SK-OV-3 ovarian
  TGI: 30.8 µM
MCF7 breast
  TGI: 11.2 µM
NCI/ADR-RES ovarian
  TGI: 6.8 µM
SK-MEL-28 melanoma
  TGI: 6.61 µM
NCI-H226 lung
  TGI: 27.2 µM
M19-MEL melanoma
  TGI: 22.8 µM
IGROV1 ovarian
  TGI: 27.2 µM
SF-539 CNS
  TGI: 23 µM
HCC-2998 colon
  TGI: 13.8 µM
